biological target: Human Factor D (Homo sapiens (Human), UniProt P00746); experiment: Human Factor D Assay; type: biochemical; conditions: Human Factor D 80 nM, substrate Z-L-Lys-SBzl, assay according to Example 3
In short: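 Serum-purified factor D (80 nM final) preincubated with compound 5 min at room temperature in 50 mM Tris, 1M NaCl, pH 7.5. Z-L-Lys-SBzl substrate and DTNB added at 100 μM each; A405 read every 30 s for 30 min. IC50 from nonlinear regression of reaction rates versus compound concentration.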

Sequence of Human Factor D (P00746 26-253): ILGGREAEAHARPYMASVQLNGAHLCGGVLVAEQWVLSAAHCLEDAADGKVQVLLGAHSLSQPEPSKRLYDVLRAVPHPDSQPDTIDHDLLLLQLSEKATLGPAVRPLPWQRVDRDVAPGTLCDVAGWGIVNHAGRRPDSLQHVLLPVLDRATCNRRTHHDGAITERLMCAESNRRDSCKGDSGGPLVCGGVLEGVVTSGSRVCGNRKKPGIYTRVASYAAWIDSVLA

Question: How did the IC50 turn out when `CC(=O)c1cn(CC(=O)N2[C@H](C(=O)Nc3nc(C(F)(F)F)ncc3C)C[C@@]3(C)C[C@@H]23)c2c(C)cc(-c3cnc(C)nc3)cc12` [Compound 57, (1R,3S,5R)-2-(2-(3-acetyl-7-methyl-5-(2-methylpyr-imidin-5-yl)-1H-indol-1-yl)acetyl)-5-methyl-N-(5-methyl-2-(trifluorometh-yl)pyrimidin-4-yl)-2-aza-bicyclo[3.1.0]hexane-3-carboxamide] was run?
Answer: < 1000 nM

Question: For `CC(=O)c1cn(CC(=O)N2[C@H](C(=O)Nc3nc(C(F)(F)F)cc(F)c3C)C[C@@]3(C)C[C@@H]23)c2c(C)cc(-c3ccc4nc(C)nn4c3)cc12` [Compound 58, (1R,3S,5R)-2-(2-(3-acetyl-7-methyl-5-(2-methyl-[1,2,4]triazolo[1,5-a]pyr-idin-6-yl)-1H-indol-1-yl)-acetyl)-N-(4-fluoro-3-methyl-6-(trifluorometh-yl)pyridin-2-yl)-5-methyl-2-azabicyclo[3.1.0]hexane-3-carboxamide], which IC50 is on record?
Answer: < 1000 nM

Question: How did the IC50 turn out when `CC(=O)c1cn(CC(=O)N2[C@H](C(=O)Nc3nc(C(F)(F)F)cnc3C)C[C@@]3(C)C[C@@H]23)c2c(C)cc(-c3cnc(C)nc3)cc12` [Compound 59, (1R,3S,5R)-2-(2-(3-acetyl-7-methyl-5-(2-methylpyr-imidin-5-yl)-1H-indol-1-yl)acetyl)-5-methyl-N-(3-methyl-6-(trifluorometh-yl)pyrazin-2-yl)-2-azabi-cyclo[3.1.0]hexane-3-car-boxamide] was run?
Answer: 1000 to 10000 nM

Question: `CC(=O)c1cn(CC(=O)N2[C@H](C(=O)Nc3nc(C(F)(F)F)cnc3C)C[C@@]3(C)C[C@@H]23)c2c(C)cc(-c3cnc4cc(C)nn4c3)cc12` [Compound 60, (1R,3S,5R)-2-(2-(3-acetyl-7-methyl-5-(2-methylpyr-azolo[1,5-a]pyrimidin-6-yl)-1H-indol-1-yl)acetyl)-5-methyl-N-(3-methyl-6-(trifluoromethyl)pyrazin-2-yl)-2-azabicyclo[3.1.0] hexane-3-carboxamide] was tested. Which IC50 did it give?
Answer: < 1000 nM

Question: With `CC(=O)c1cn(CC(=O)N2C[C@@](F)(CF)C[C@H]2C(=O)Nc2nc(C(F)(F)F)ccc2C)c2c(C)cc(-c3cnc(C)nc3)cc12` [Compound 61, (2S,4R)-1-(2-(3-acetyl-7-methyl-5-(2-methylpyrim-idin-5-yl)-1H-indol-1-yl)-acetyl)-4-fluoro-4-(fluoro-methyl)-N-(3-methyl-6-(trifluoromethyl)pyridin-2-yl)pyrrolidine-2-carbox-amide] as the compound, how does the IC50 read?
Answer: < 1000 nM

Question: Which IC50 does the source give for `CC(=O)c1cn(CC(=O)N2C[C@H]3C[C@H]3[C@H]2C(=O)Nc2nc(Br)ccc2C)c2c(C)cc(-c3cnc4cc(C)nn4c3)cc12` [Compound 63, (1R,2S,5S)-3-(2-(3-acetyl-7-methyl-5-(2-methylpyr-azolo[1,5-a]pyrimidin-6-yl)-1H-indol-1-yl)acetyl)-N-(6-bromo-3-methylpyr-idin-2-yl)-3-azabicyclo [3.1.0]hexane-2-carbox-amide] here?
Answer: < 1000 nM

Question: For `CC(=O)c1cn(CC(=O)N2[C@H](C(=O)Nc3ccn(CC(F)(F)F)n3)C[C@@]3(C)C[C@@H]23)c2c(C)cc(-c3cnc4cc(C)nn4c3)cc12` [Compound 64, (1R,3S,5R)-2-(2-(3-acetyl-7-methyl-5-(2-methylpyr-azolo[1,5-a]pyrimidin-6-yl)-1H-indol-1-yl)acetyl)-5-methyl-N-(1-(2,2,2-tri-fluoroethyl)-1H-pyrazol-3-yl)-2-azabicyclo[3.1.0] hexane-3-carboxamide], which IC50 is on record?
Answer: < 1000 nM

Question: Which IC50 does the source give for `CC(=O)c1cn(CC(=O)N2[C@H](C(=O)Nc3ccn(CC(F)(F)F)n3)C[C@@]3(C)C[C@@H]23)c2c(C)cc(-c3ccc4nc(C)nn4c3)cc12` [Compound 65, (1R,3S,5R)-2-(2-(3-acetyl-7-methyl-5-(2-methyl-[1,2,4]triazolo[1,5-a]pyr-idin-6-yl)-1H-indol-1-yl)-acetyl)-5-methyl-N-(1-(2,2,2-trifluoroethyl)-1H-pyrazol-3-yl)-2-azabicyclo [3.1.0]hexane-3-carbox-amide] here?
Answer: < 1000 nM

Question: With `CC(=O)c1cn(CC(=O)N2C[C@H](F)C[C@H]2C(=O)Nc2ccn(CC(F)(F)F)n2)c2c(C)cc(-c3cnc4cc(C)nn4c3)cc12` [Compound 66, (2S,4R)-1-(2-(3-acetyl-7-methyl-5-(2-methylpyr-azolo[1,5-a]pyrimidin-6-yl)-1H-indol-1-yl)acetyl)-4-fluoro-N-(1-(2,2,2-tri-fluoroethyl)-1H-pyrazol-3-yl)pyrrolidine-2-carbox-amide] as the compound, how does the IC50 read?
Answer: < 1000 nM

Question: With `CC(=O)c1cn(CC(=O)N2C[C@H](F)C[C@H]2C(=O)Nc2ccn(CC(F)(F)F)n2)c2ccc(-c3cnc4cc(C)nn4c3)cc12` [Compound 67, (2S,4R)-1-(2-(3-acetyl-5-(2-methylpyrazolo[1,5-a]pyrimidin-6-yl)-1H-indol-1-yl)acetyl)-4-fluoro-N-(1-(2,2,2-trifluoroethyl)-1H-pyrazol-3-yl)pyrrolidine-2-carboxamide] as the compound, how does the IC50 read?
Answer: < 1000 nM

Question: For `CC(=O)c1cn(CC(=O)N2[C@H](C(=O)Nc3nc(Br)ccc3Cl)C[C@@]3(C)C[C@@H]23)c2c(C)cc(-c3cnc(C)nc3)cc12` [Compound 68, (1R,3S,5R)-2-(2-(3-acetyl-7-methyl-5-(2-methylpyr-imidin-5-yl)-1H-indol-1-yl)acetyl)-N-(6-bromo-3-chloropyridin-2-yl)-5-methyl-2-azabicyclo[3.1.0] hexane-3-carboxamide], which IC50 is on record?
Answer: < 1000 nM

Question: With `CC(=O)c1nn(CC(=O)N2[C@H](C(=O)Nc3nc(Br)ccc3C)C[C@@]3(C)C[C@@H]23)c2cc3c(cc12)-c1cnc(C)nc1C=CC3` [Compound 69, (1R,3S,5R)-2-(2-(11-acet-yl-3-methylpyrimido [4′,5′:6,7]cyclohepta[1,2-f]indazol-9(7H)-yl)acetyl)-N-(6-bromo-3-methylpyr-idin-2-yl)-5-methyl-2-aza-bicyclo[3.1.0]hexane-3-carboxamide] as the compound, how does the IC50 read?
Answer: < 1000 nM

Question: Which IC50 does the source give for `CC(=O)c1cn(CC(=O)N2[C@H](C(=O)Nc3nc(C(F)(F)F)c(F)cc3C)C[C@@]3(C)C[C@@H]23)c2c(C)cc(-c3cnc(C)nc3)cc12` [Compound 71, (1R,3S,5R)-2-(2-(3-acetyl-7-methyl-5-(2-methylpyr-imidin-5-yl)-1H-indol-1-yl)acetyl)-N-(5-fluoro-3-methyl-6-(trifluorometh-yl)pyridin-2-yl)-5-methyl-2-azabicyclo[3.1.0]hexane-3-carboxamide] here?
Answer: < 1000 nM

Question: How did the IC50 turn out when `[2H]C([2H])([2H])OC([2H])([2H])c1ccc(C(F)(F)F)nc1NC(=O)[C@@H]1C[C@@]2(C)C[C@H]2N1C(=O)Cn1cc(C(C)=O)c2cc(-c3cnc4cc(C)nn4c3)cc(C)c21` [Compound 80, (1R,3S,5R)-2-(2-(3-acetyl-7-methyl-5-(2-methylpyr-azolo[1,5-a]pyrimidin-6-yl)-1H-indol-1-yl)acetyl)-N-(3-((methoxy-d3)meth-yl-d2)-6-(trifluoromethyl)-pyridin-2-yl)-5-methyl-2-azabicyclo[3.1.0]hexane-3-carboxamide] was run?
Answer: < 1000 nM

Question: `[2H]C([2H])([2H])OCc1ccc(C(F)(F)F)nc1NC(=O)[C@@H]1C[C@@]2(C)C[C@H]2N1C(=O)Cn1cc(C(C)=O)c2cc(-c3ccc4nc(C)nn4c3)cc(C)c21` [Compound 81, (1R,3S,5R)-2-(2-(3-acetyl-7-methyl-5-(2-methyl-[1,2,4]triazolo[1,5-a]pyr-idin-6-yl)-1H-indol-1-yl)-acetyl)-N-(3-((methoxy-d3)methyl-d2)-6-(trifluoro-methyl)pyridin-2-yl)-5-methyl-2-azabicyclo[3.1.0] hexane-3-carboxamide] was tested. Which IC50 did it give?
Answer: < 1000 nM

Question: With `CC(=O)c1nn(CC(=O)N(C)[C@@H](C)C(=O)Nc2nc(Br)ccc2C)c2cc3c(cc12)-c1cnc(C)nc1CC=C3` [Compound 109, (S)-2-(2-(11-acetyl-3-methylpyrimido[4′,5′:6,7]cyclohepta[1,2-f]indazol-9(5H)-yl)-N-methylacetamido)-N-(6-bromo-3-methylpyridin-2-yl)propanamide] as the compound, how does the IC50 read?
Answer: < 1000 nM

Question: Which IC50 does the source give for `CC(=O)c1nn(CC(=O)N(C)[C@@H](C)C(=O)Nc2nc(Br)ccc2C)c2cc3c(cc12)-c1cnc(C)nc1C=CC3` [Compound 110, (S)-2-(2-(11-acetyl-3-methylpyrimido[4′,5′:6,7]cyclohepta[1,2-f]indazol-9(7H)-yl)-N-methylacetamido)-N-(6-bromo-3-methylpyridin-2-yl)propanamide] here?
Answer: < 1000 nM

Source: patent US20250197403A1, “HETEROARYL COMPOUNDS FOR TREATMENT OF COMPLEMENT FACTOR D MEDIATED DISORDERS” (Achillion Pharmaceuticals, Inc., priority 2020, published 2025)
